Measured values published in patent publication US20170224653A1, “TLR-INDEPENDENT SMALL MOLECULE ADJUVANTS” (The Scripps Research Institute, priority 2014, published 2017).

Legend:
THP-1 cells = experiment: TNF-α production upon compound treatment of THP-1 cells; format: cell-based; conditions: FIG. 2
mouse macrophages = experiment: TNF-α production in macrophages from mice with germline mutations or knockouts of TLR and signaling genes; format: cell-based
From the text: Induced TNF-α production was established with the use of macrophages from mice bearing germline genetic defects or knockouts of each of the genes encoding the TLRs or their downstream signaling molecules uniquely available in the laboratories of Professor Bruce Beutler, (University of Texas Southwestern Medical Center, Dallas, Tex.). See, (a) mutagenetix.utsouthwestern.edu.; (b) Arnold et al., (2012) ENU-induced phenovariance in mice: Inferences from 587 mutations. BMC Res. Notes. 5, 577-0500-5-577.

C57BL/6J mice = experiment: Adjuvant effect with ovalbumin, intramuscular immunization, serum OVA-specific IgG by ELISA; format: in vivo, mouse
Description: In FIG. 3, adjuvants were mixed with ovalbumin (OVA, 100 μg) and injected intramuscularly into C57BL/6J mice at the indicated doses. Two immunizations were administered with a booster given at 7 days.
FIG. 4 provides a series of graphs that show anti-olvalbumin titers at 14 days post immunization using adjuvants with ovalbumin (OVA, 100 μg) and injected intramuscularly into C57BL/6J mice. The adjuvants used were Compound 125-03, neoseptin-3 (below), LPS, MPLA (monophosphoryl lipid A from […]

[1] = Overt toxicity when used as an adjuvant at maximum doses; format: in vivo; conditions: maximum doses capable of administration, compared with LPS
Cyld = target: T1, Cyld (Homo sapiens, UniProt Q9NQC7); experiment: In vitro assay of Cyld activity; format: biochemical
T1 sequence (Q9NQC7 1-956): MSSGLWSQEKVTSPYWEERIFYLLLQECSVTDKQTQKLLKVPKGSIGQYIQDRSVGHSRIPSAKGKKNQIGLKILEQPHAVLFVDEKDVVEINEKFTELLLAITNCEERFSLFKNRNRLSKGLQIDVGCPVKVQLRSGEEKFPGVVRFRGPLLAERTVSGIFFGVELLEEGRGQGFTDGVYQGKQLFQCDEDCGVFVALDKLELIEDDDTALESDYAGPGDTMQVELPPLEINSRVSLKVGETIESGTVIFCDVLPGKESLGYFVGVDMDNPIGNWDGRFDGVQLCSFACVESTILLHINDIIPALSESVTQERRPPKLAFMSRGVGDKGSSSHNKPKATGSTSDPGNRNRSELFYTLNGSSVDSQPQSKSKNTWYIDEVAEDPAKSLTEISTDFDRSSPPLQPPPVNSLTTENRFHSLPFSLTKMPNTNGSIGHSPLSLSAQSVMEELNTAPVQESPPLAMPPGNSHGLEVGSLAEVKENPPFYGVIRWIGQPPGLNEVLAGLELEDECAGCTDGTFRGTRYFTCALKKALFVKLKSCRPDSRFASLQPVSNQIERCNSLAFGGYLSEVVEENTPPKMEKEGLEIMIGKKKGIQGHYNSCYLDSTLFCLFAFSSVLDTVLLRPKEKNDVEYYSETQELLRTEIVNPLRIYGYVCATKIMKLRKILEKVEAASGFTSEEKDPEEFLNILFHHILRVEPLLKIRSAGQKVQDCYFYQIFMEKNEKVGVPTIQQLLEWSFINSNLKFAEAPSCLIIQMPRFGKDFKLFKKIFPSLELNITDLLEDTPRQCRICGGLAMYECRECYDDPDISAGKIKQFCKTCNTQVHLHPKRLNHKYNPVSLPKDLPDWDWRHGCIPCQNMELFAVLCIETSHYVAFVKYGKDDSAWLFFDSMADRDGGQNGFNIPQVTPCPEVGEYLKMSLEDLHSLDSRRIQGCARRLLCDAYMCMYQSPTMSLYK

TLR ligands = experiment: Mechanistic studies: responses to TLR ligands; format: cell-based; conditions: TLR ligands including neoseptin-3
TLR4 = target: T2, TLR4 (Mus musculus, UniProt Q9JHF9+Q9QUK6); experiment: TLR4 agonist activity, stimulated TNF-alpha release in mouse macrophages; format: cell-based; conditions: for TLR4 agonist efficacy: relative to neoseptin-1 or LPS
T2 construct: measuring the stimulated TNF-alpha release in mouse macrophages; endogenous in cells; host or cells: mouse macrophages
T2 sequence (Q9QUK6 26-835): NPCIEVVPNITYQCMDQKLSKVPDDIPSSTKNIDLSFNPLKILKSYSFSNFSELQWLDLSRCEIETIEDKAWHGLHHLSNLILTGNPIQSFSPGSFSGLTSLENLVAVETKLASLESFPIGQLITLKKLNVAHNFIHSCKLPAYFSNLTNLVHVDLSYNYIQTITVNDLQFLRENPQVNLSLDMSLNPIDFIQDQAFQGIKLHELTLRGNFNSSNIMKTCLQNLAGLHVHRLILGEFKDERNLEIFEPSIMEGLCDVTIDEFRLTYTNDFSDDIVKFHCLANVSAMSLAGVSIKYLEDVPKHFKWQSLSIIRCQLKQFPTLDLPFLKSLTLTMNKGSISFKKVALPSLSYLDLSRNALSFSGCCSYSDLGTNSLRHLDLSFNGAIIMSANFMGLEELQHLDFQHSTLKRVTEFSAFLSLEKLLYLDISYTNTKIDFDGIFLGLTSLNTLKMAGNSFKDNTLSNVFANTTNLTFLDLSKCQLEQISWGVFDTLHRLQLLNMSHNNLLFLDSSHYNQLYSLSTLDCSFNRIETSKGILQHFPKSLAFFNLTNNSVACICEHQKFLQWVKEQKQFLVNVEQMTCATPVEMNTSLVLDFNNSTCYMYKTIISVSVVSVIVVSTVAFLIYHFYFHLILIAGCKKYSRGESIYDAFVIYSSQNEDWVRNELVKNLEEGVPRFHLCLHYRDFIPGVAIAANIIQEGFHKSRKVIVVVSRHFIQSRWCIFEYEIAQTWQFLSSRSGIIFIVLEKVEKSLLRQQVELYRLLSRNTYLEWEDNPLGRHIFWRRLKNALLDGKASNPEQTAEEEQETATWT
T2 sequence (Q9JHF9 19-160): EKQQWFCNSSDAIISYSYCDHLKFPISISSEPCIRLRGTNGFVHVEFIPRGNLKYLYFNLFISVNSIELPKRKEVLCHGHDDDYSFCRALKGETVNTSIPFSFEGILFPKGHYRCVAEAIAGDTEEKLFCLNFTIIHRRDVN
From the text: In efforts to improve the TLR4 agonist activity of an initial screening lead, neoseptin-1 (below), measuring the stimulated TNF-alpha release in mouse macrophages, Compound 125-03, used herein as illustrative of the contemplated compounds, emerged as a key compound capable of stimulating the immune response (below). […] [TLRs […] have been lost from the mouse genome, and TLRs 11, 12 and 13 have been lost from the human genome. Beutler, Blood, 113:1399-1407 (2009).]

| Compound | release of TNF-alpha from differentiated human THP-1 cells (THP-1 cells) | TLR dependence of stimulated TNF-alpha production (mouse macrophages; macrophages from mice with disabling mutations or knockouts of TLR genes, FIG. 1) | stimulating the release of TNF-alpha in mouse macrophages (mouse macrophages; mouse macrophages) | adjuvant activity, serum OVA-specific IgG (C57BL/6J mice; OVA 100 μg, intramuscular, booster at 7 days, day 35 post-immunization, FIG. 3) | adjuvant activity compared with alum (C57BL/6J mice; anti-ovalbumin titers, 14 days post immunization, concentrations used, FIG. 4) | overt toxicity [1] | effect on Cyld activity (Cyld) | effect on responses to TLR ligands (TLR ligands) | TLR4 agonist efficacy (TLR4) | concentration needed for an antibody response similar to Compound 125-03 (C57BL/6J mice; at fourteen days) | TLR4 agonism (TLR4) |
| --- | --- | --- | --- | --- | --- | --- | --- | --- | --- | --- | --- |
| O=C(NCCCc1ccccc1)c1ccc(NC(=O)c2cc3ccccc3o2)c(OCCc2ccc(O)cc2)c1 [Compound 125-03, N-(2-(4-Hydroxyphenethoxy)-4-((3-phenylpropyl)-carbamoyl)phenyl)benzofuran-2-carboxamide] | dose dependent activity | independent of the TLRs including TLR4/MD-2 | active | robust, dose-dependent adjuvant activity | more effective than alum | did not display the overt toxicity | directly inhibits Cyld activity | markedly increased responses to TLR ligands | – | – | – |
| N[C@@H](Cc1ccccc1)C(=O)Nc1ccc(C(=O)N[C@@H](CCc2ccccc2)C(=O)O)cc1CCc1ccc(O)cc1 [MM-1-88] | – | – | – | – | – | – | – | – | significant enhancement in TLR4 agonist efficacy | – | – |
| CC(C)(C)OC(=O)[C@H](CCc1ccccc1)NC(=O)c1ccc(N)c(CCc2ccc(O)cc2)c1 [neoseptin-3, reference compound] | not active in human cells | – | – | – | – | – | – | – | nearly matching the efficacy of LPS | about twice the concentration | TLR4-agonist |
